Results reported in US12090252B2, “Method for producing retinal tissues” (RIKEN, priority 2017, dated 2024).

How the values were obtained:
Assay type in all cases: cell-based
[1] = test system: cell aggregates containing a retinal tissue produced from human ES cells; test: CRX:Venus, RXR-γ and NRL cell proportions in retinal tissue, about day 190 of suspension culture (immunostaining, Image J); conditions: about day 190 (day 188-193); T3 60 nM day 38-130; BMP4 0.15 nM or Cyclopamine-KAAD 500 nM day 22-100
Experimental: (§1) A cell aggregate containing a retinal tissue in an initial developmental stage was prepared by the method described in “Kuwahara et al. Nat Commun 2015, 19(6), 6286-” after modification in part. That is, the aforementioned cultured ES cells were individually dispersed using TRYPLE™ Express cell dispersion solution (Invitrogen), and the individually dispersed human ES cells were suspended in 100 μL of a serum-free medium in a cell non-adhesive 96 well culture plate (SUMILON spheroid plate, SUMITOMO BAKELITE CO., LTD.) at 9×10^3 cells per well to allow rapid formation of aggregates, after which they were cultured at 37° C., 5% CO2. As the serum-free medium therefor, a serum-free medium obtained by adding 10% KSR, 450 μM 1-monothioglycerol, 1× Chemically defined lipid concentrate, 5 mg/mL BSA, 20 μM Y27632 to a 1:1 mixture of F-12 medium and IMDM medium was used. At 6 days after the start of suspension culture, BMP4 at a final concentration of 1.5 nM was added and suspension culture was continued. A half amount of the culture medium in the well was exchanged with the above-mentioned medium not supplemented with a BMP signal transduction pathway agonist every 3 or 4 days. A cell aggregate containing a retinal tissue at day 18 from the start of suspension culture was cultured in suspension in a serum-free medium (DMEM/F12 medium supplemented with 1% N2 supplement) containing 3 μM CHIR99021 and 5 μM SU5402 for 4 days, namely, up to day 22 from the start of suspension culture. Thereafter, suspension culture of the cell aggregate containing the retinal tissue was continued until it was appropriately used for analysis and the like. As the culture medium during this period, serum-containing media shown in the following to [3] were used and the cell aggregate was cultured under 5% CO2 conditions. • [1] day 22 to day 38 from the start of suspension culture; DMEM/F12 medium supplemented with 10% fetal calf serum, 1% N2 supplement, and 100 μM taurine (hereinafter to be referred to as medium A). • [2] day 38 to day 60 from the start of suspension culture; a 1:3 mixed medium of medium A, and Neurobasal medium supplemented with 10% fetal calf serum, 2% B27 supplement, […], and 100 μM taurine (hereinafter to be referred to as medium B). • [3] after day 60 or later from the start of suspension culture: medium B.
The cell aggregates containing a retinal tissue shown in Example 6 were prepared by respectively adding T3 or dorsalization signal transmitter (BMP4 or Cyclopamine-KAAD) as follows in the method described in Example 1. • [1]-T3 group (FIG. 6a, FIG. 6e, FIG. 6i, FIG. 6m); using the culture medium described in Example 1, culture was performed without addition up to day 191 from the start of suspension culture. • [2] +T3 group (FIG. 6b, FIG. 6f, FIG. 6j, FIG. 6n); using the culture medium described in Example 1, 60 nM T3 was further added from day 38 to day 130 from the start of suspension culture, and thereafter cultured up to day 192 from the start of suspension culture. From day 130 to day 192, medium described in Example 1 was used. • [3] +T3+BMP group (FIG. 6c, FIG. 6g, FIG. 6k, FIG. 6o); using the culture medium described in Example 1, 0.15 nM BMP4 was further added from day 22 to day 100 from the start of suspension culture, 60 nM T3 was added from day 38 to day 130 from the start of suspension culture, and thereafter cultured up to day 188 from the start of suspension culture. From day 130 to day 188, medium described in Example 1 was used. • [4] +T3+Cyclopamine-KAAD group (FIG. 6d, FIG. 6h, FIG. 6l, FIG. 6p); using the culture medium described in Example 1, 500 nM Cyclopamine-KAAD was further added from day 22 to day 100 from the start of suspension culture, 60 nM T3 was added from day 38 to day 130 from the start of suspension culture, and thereafter cultured up to day 193 from the start of suspension culture. From day 130 to day 193, medium described in Example 1 was used.

[2] = test system: cell aggregates containing a retinal tissue produced from human ES cells; test: PAX6/CHX10 cell proportions in retinal tissue, about day 190 of suspension culture (immunostaining, Image J)
Experimental: as §1
The cell aggregates containing a retinal tissue shown in Example 5 were prepared by respectively adding T3 or dorsalization signal transmitter as follows in the method described in Example 1. • [1]-T3 group (FIG. 5a, FIG. 5g, FIG. 5m); using the culture medium described in Example 1, culture was performed without addition up to day 191 from the start of suspension culture. • [2] +T3 group (FIG. 5b, FIG. 5h, FIG. 5n); using the culture medium described in Example 1, 60 nM T3 was further added from day 38 to day 130 from the start of suspension culture, and thereafter cultured up to day 188 from the start of suspension culture. From day 130 to day 188, medium B described in Example 1 was used. • [3] +BMP group (FIG. 5c, FIG. 5i, FIG. 5o); using the culture medium described in Example 1, 0.15 nM BMP4 was further added from day 22 to day 100 from the start of suspension culture, and thereafter cultured up to day 191 from the start of suspension culture. From day 100 to day 191, medium described in Example 1 was used. • [4] +T3+BMP group (FIG. 5d, FIG. 5j, FIG. 5p); using the culture medium described in Example 1, 0.15 nM BMP4 was further added from day 22 to day 100 from the start of suspension culture, 60 nM T3 was added from day 38 to day 130 from the start of suspension culture, and thereafter cultured up to day 188 from the start of suspension culture.

[3] = test system: cell aggregates containing a retinal tissue produced from human ES cells; test: CRX-positive and TRβ2-positive cells in retinal tissue, about day 70 of suspension culture (immunostaining, Image J); conditions: about day 70 (day 71-75) from start of suspension culture; T3 60 nM from day 38; BMP4 0.15 nM or Cyclopamine-KAAD 500 nM from day 22
Experimental: as §1
The cell aggregates containing a retinal tissue shown in Example 4 were prepared by respectively adding T3 or dorsalization signal transmitter (BMP4) as follows in the method described in Example 1. • [1]-T3 group (FIG. 4a, FIG. 4e, FIG. 4i); using the culture medium described in Example 1, culture was performed without addition up to day 75 from the start of suspension culture. • [2] +T3 group (FIG. 4b, FIG. 4f, FIG. 4j); using the culture medium described in Example 1, 60 nM T3 was further added from day 38 from the start of suspension culture to the completion of suspension culture, and cultured up to day 71 from the start of suspension culture. • [3] +T3+BMP group (FIG. 4c, FIG. 4g, FIG. 4k); using the culture medium described in Example 1, 0.15 nM BMP4 and 60 nM T3 were further added respectively from day 22, day 38 from the start of suspension culture to the completion of suspension culture, and cultured up to day 71 from the start of suspension culture. • [4] +T3+Cyclopamine-KAAD group (FIG. 4d, FIG. 4h, FIG. 4l); using the culture medium described in Example 1, 500 nM Cyclopamine-KAAD and 60 nM T3 were further added respectively from day 22, day 38 from the start of suspension culture to the completion of suspension culture, and cultured up to day 71 from the start of suspension culture.
After fixing cell aggregates containing retinal tissue cultured under the above conditions with 4% para-formaldehyde, cryosections were prepared and subjected to immunostaining using CRX, TRβ2(TRb2) antibody, or DAPI staining for staining the cell nucleus.

[4] = about day 190 (day 188-191), T3 60 nM day 38-130, BMP4 0.15 nM or Cyclopamine-KAAD 500 nM day 22-100

Substance: BMP4: BMP protein, BMP signal transduction pathway agonist used as dorsalization signal transmitter
- CRX-positive cells (CRX:Venus-positive, photoreceptor precursor) [1]: 37.7%
- NRL-positive cells among CRX-positive cells (rod photoreceptor precursor) [1]: 6.1%
- RXR-γ-positive and NRL-negative cell among CRX-positive cells (cone photoreceptor precursor) [1]: 31.3%
- PAX6-negative/CHX10-strongly positive cells (bipolar cells) [2, 4]: 15.49%
- PAX6-strongly positive/CHX10-negative cells (any of ganglion cell, amacrine cell, horizontal cell) [2, 4]: 24.60%
- PAX6-strongly positive/CHX10-negative cell and PAX6-negative/CHX10-strongly positive cell, observation with fluorescent microscope ([2]; day 188-191, groups added with T3 compared to groups with no addition): many
- CRX-positive and TRβ2-positive cells (cone photoreceptor precursor) [3]: 10.8%
- CRX-positive cells (photoreceptor precursor) contained in retinal tissue [3]: 17.0%
